Laboratory results taken from patent US10251932B2, “Preparations containing amorphous emodepside” (Bayer Intellectual Property GmbH, priority 2011, dated 2019).
≈ marks a conversion by molar mass, not a printed value.

Experiment: Solubility of emodepside in water
Type: physicochemical
Conditions: range of pH 4-10

solubility: 5 to 7 µg/mL (≈ 4.47 to 6.25 µM)
SMILES: CC(C)CC1C(=O)OC(Cc2ccc(N3CCOCC3)cc2)C(=O)N(C)C(CC(C)C)C(=O)OC(C)C(=O)N(C)C(CC(C)C)C(=O)OC(Cc2ccc(N3CCOCC3)cc2)C(=O)N(C)C(CC(C)C)C(=O)OC(C)C(=O)N1C [Emodepside, cyclo[(R)-lactoyl-N-methyl-1-leucyl-(R)-3-(p-morpholinophenyl)lactoyl-N-methyl-1-leucyl-(R)-lactoyl-N-methyl-1-leucyl-(R)-3-(p-morpholinophenyl)lactoyl-N-methyl-1-leucyl]
